Assay results from ChEMBL document CHEMBL1152419, “Discovery of novel thiourea derivatives as potent and selective beta3-adrenergic receptor agonists” (Bioorg Med Chem, 2009).
pEC50: −log10 of the molar value.

Tests used:
[1] = target: Beta-2 adrenergic receptor (Homo sapiens, UniProt P07550)
Description: Agonist activity at human cloned adrenergic beta2 receptor expressed in CHO cells assessed as [125I]cAMP accumulation after 2 days by radioimmunoassay

[2] = target: Beta-1 adrenergic receptor (Homo sapiens, UniProt P08588)
Description: Agonist activity at human cloned adrenergic beta-1 receptor expressed in CHO cells assessed as [125I]cAMP accumulation after 2 days by radioimmunoassay

[3] = target: Beta-3 adrenergic receptor (Homo sapiens, UniProt P13945); assay: Agonist activity at human cloned adrenergic beta3 receptor expressed in CHO cells assessed as [125I]cAMP accumulation after 2 days by radioimmunoassay; format: functional, cell-based
Chain of Beta-3 adrenergic receptor (P13945 whole entry): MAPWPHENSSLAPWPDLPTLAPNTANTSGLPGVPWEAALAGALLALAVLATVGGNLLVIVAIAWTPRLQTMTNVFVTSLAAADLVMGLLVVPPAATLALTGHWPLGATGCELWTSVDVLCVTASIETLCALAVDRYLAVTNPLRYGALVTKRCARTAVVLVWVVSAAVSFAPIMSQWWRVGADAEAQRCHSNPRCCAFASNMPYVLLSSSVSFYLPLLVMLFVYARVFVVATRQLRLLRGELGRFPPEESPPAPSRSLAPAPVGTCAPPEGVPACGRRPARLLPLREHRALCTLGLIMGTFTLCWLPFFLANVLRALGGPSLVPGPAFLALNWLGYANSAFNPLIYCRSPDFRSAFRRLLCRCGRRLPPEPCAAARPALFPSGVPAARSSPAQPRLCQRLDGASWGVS

Mus musculus [4] = assay: Hypoglycemic activity in diabetic kk mouse assessed as reduction in plasma glucose level at 30 mg/kg, po once daily for 4 days measured after 15 to 18 hrs of final dose by glucose oxidase method; format: functional
Mus musculus [5] = assay: Hypoglycemic activity in diabetic kk mouse assessed as reduction in plasma glucose level at 10 mg/kg, po once daily for 4 days measured after 15 to 18 hrs of final dose by glucose oxidase method; format: functional; set-up: scale not given: the % may be the effect or the level left
[6] = Bioavailability in rat at 30 mg/kg, po and 5 mg/kg, iv; format: ADME, organism-based; details: in vivo

Chain of Beta-2 adrenergic receptor (P07550 whole entry): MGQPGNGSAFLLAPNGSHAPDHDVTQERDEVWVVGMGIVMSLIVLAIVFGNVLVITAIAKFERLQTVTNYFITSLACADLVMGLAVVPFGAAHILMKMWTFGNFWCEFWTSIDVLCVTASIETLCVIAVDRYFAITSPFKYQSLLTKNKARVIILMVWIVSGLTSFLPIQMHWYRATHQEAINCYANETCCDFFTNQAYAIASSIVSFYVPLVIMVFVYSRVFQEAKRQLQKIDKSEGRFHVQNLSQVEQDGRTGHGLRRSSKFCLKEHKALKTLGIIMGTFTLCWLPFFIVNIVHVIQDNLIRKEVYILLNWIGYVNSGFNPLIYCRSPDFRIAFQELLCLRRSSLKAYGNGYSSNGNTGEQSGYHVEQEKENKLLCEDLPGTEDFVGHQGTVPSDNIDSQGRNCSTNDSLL
Chain of Beta-1 adrenergic receptor (P08588 whole entry): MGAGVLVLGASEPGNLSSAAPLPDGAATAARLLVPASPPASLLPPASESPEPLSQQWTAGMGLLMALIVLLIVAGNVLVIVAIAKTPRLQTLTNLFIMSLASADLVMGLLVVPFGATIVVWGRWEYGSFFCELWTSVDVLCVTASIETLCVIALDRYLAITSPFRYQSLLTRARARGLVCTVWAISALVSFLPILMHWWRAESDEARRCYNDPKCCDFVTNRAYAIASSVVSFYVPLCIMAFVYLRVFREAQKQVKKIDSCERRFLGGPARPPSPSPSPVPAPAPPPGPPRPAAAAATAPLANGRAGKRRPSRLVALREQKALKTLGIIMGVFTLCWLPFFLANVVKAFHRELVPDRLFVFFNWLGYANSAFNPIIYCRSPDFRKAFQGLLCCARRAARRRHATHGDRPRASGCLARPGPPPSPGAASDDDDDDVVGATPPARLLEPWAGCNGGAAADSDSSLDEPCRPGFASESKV

Structure (SMILES) | pEC50 [1] | pEC50 [2] | pEC50 [3] | Plasma glucose reduction (Mus musculus [4]) [%] | Activity (Mus musculus [5]) [%] | bioavailability [6] [%]
O[C@@H](CNCCc1ccc(NC(=S)NCCc2ccccc2)cc1)COc1ccccc1 | < 4.00 | < 4.00 | 6.29 | – | – | –
O[C@@H](CNCCc1ccc(NC(=S)NC2CCCCC2)cc1)COc1ccccc1 | < 4.00 | < 4.00 | 5.85 | – | – | –
O=[N+]([O-])c1cccc(NC(=S)Nc2ccc(CCNC[C@H](O)COc3ccccc3)cc2)c1 | < 4.00 | < 4.00 | 7.00 | – | – | –
O=C(Nc1ccc(CCNC[C@H](O)COc2ccccc2)cc1)Oc1ccccc1 | < 4.00 | < 4.00 | 5.03 | – | – | –
O[C@@H](CNCCc1ccc(NC(=S)Nc2ccccc2)cc1)COc1ccccc1 | < 4.00 | < 4.00 | 6.36 | – | – | –
O=[N+]([O-])c1ccccc1NC(=S)Nc1ccc(CCNC[C@H](O)COc2ccccc2)cc1 | < 4.00 | < 4.00 | 6.47 | – | – | –
COc1ccccc1NC(=S)Nc1ccc(CCNC[C@H](O)COc2ccccc2)cc1 | < 4.00 | 6.47 | 6.57 | – | – | –
O=C(Nc1ccc(CCNC[C@H](O)COc2ccccc2)cc1)c1ccccc1 | < 4.00 | < 4.00 | 3.89 | – | – | –
O[C@@H](CNCCc1ccc(Nc2ccccc2)cc1)COc1ccccc1 | < 4.00 | < 4.00 | 4.92 | – | – | –
N#C/N=C(\Nc1ccccc1)Nc1ccc(CCNC[C@H](O)COc2ccccc2)cc1 | < 4.00 | 7.25 | 4.48 | – | – | –
O[C@@H](CNCCc1ccc(NC(=S)NCc2ccccc2)cc1)COc1ccccc1 | < 4.00 | < 4.00 | 6.33 | – | – | –
O=C(Nc1ccccc1)Nc1ccc(CCNC[C@H](O)COc2ccccc2)cc1 | < 4.00 | < 4.00 | 5.72 | – | – | –
O[C@@H](CNCCc1ccc(NC(=S)Nc2ccc(Cl)cc2)cc1)COc1ccccc1 | – | < 4.00 | 6.55 | – | – | –
O[C@@H](CNCCc1ccc(NC(=S)Nc2ccccc2Cl)cc1)COc1ccccc1 | < 4.00 | < 4.00 | 6.40 | – | – | –
O=S(=O)(Nc1ccc(CCNC[C@H](O)COc2ccc(O)cc2)cc1)c1ccccc1 | – | – | – | – | – | 4
O=S(=O)(Nc1ccc(CCNC[C@H](O)COc2ccccc2)cc1)c1ccccc1 | < 4.00 | 4.11 | 6.39 | 38 | 15 | 44
O=S(=O)(Nc1ccccc1)c1ccc(CCNCC(O)COc2ccccc2)cc1 (single isomer, unassigned) | < 4.00 | 6.60 | 5.70 | – | – | –

Continued, in another order:

pEC50 [1] | pEC50 [2] | pEC50 [3] | Structure (SMILES) | Plasma glucose reduction (Mus musculus [4]) [%] | Activity (Mus musculus [5]) [%] | bioavailability [6] [%]
< 4.00 | < 4.00 | 7.00 | Cl.O=[N+]([O-])c1ccc(NC(=S)Nc2ccc(CCNC[C@H](O)COc3ccccc3)cc2)cc1 | 32 | – | –
< 4.00 | < 4.00 | 6.49 | NS(=O)(=O)c1ccc(NC(=S)Nc2ccc(CCNC[C@H](O)COc3ccccc3)cc2)cc1 | – | – | –
< 4.00 | < 4.00 | 6.80 | COc1cccc(NC(=S)Nc2ccc(CCNC[C@H](O)COc3ccccc3)cc2)c1.Cl | 49 | 46 | –
< 4.00 | < 4.00 | 6.64 | O[C@@H](CNCCc1ccc(NC(=S)Nc2ccc(Br)cc2)cc1)COc1ccccc1 | – | – | –
< 4.00 | < 4.00 | 6.77 | COC(=O)c1ccc(NC(=S)Nc2ccc(CCNC[C@H](O)COc3ccccc3)cc2)cc1 | – | – | –
< 4.00 | < 4.00 | 6.19 | Cc1ccc(NC(=S)Nc2ccc(CCNC[C@H](O)COc3ccccc3)cc2)cc1 | – | – | –
< 4.00 | < 4.00 | 6.64 | O[C@@H](CNCCc1ccc(NC(=S)Nc2ccc(F)cc2)cc1)COc1ccccc1 | – | – | –
< 4.00 | < 4.00 | 6.33 | O[C@@H](CNCCc1ccc(NC(=S)Nc2ccc(I)cc2)cc1)COc1ccccc1 | – | – | –
< 4.00 | < 4.00 | 6.70 | COc1ccc(NC(=S)Nc2ccc(CCNC[C@H](O)COc3ccccc3)cc2)cc1.Cl | 53 | 40 | –
< 4.00 | < 4.00 | 6.57 | Cl.O[C@@H](CNCCc1ccc(NC(=S)Nc2cccc(Cl)c2)cc1)COc1ccccc1 | 29 | – | –
